Measurements as given in PubChem BioAssay (NCI).
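Results reflect a 48-hour exposure of cells in 96-well plates to compound at five concentrations. Here, GI50 denotes the concentration required for 50% inhibition of growth. TGI: concentration producing complete growth inhibition.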

Assays:
Test in all cases: inhibition of tumour cell growth, NCI panel, 48 h
786-0 renal = system: 786-0 renal
A498 renal = system: A498 renal
A549 NSCLC = system: A549 NSCLC
ACHN renal = system: ACHN renal
BT-549 breast = system: BT-549 breast
CAKI-1 renal = system: CAKI-1 renal
CCRF-CEM leukemia = system: CCRF-CEM leukemia
COLO 205 colon = system: COLO 205 colon
DU-145 prostate = system: DU-145 prostate
EKVX NSCLC = system: EKVX NSCLC
HCC-2998 colon = system: HCC-2998 colon
HCT-116 colon = system: HCT-116 colon
HCT-15 colon = system: HCT-15 colon
HL-60(TB) leukemia = system: HL-60(TB) leukemia
HOP-62 NSCLC = system: HOP-62 NSCLC
HOP-92 NSCLC = system: HOP-92 NSCLC
HS 578T breast = system: HS 578T breast
HT29 colon = system: HT29 colon
IGROV1 ovarian = system: IGROV1 ovarian
K-562 leukemia = system: K-562 leukemia
KM12 colon = system: KM12 colon
LOX IMVI melanoma = system: LOX IMVI melanoma
M14 melanoma = system: M14 melanoma
MALME-3M melanoma = system: MALME-3M melanoma
MCF7 breast = system: MCF7 breast
MDA-MB-231 breast = system: MDA-MB-231 breast
MDA-MB-435 = system: MDA-MB-435
MDA-MB-468 breast = system: MDA-MB-468 breast
MOLT-4 leukemia = system: MOLT-4 leukemia
NCI-H226 lung = system: NCI-H226 lung
NCI-H23 lung = system: NCI-H23 lung
NCI-H460 lung = system: NCI-H460 lung
NCI-H522 lung = system: NCI-H522 lung
NCI/ADR-RES ovarian = system: NCI/ADR-RES ovarian
OVCAR-3 ovarian = system: OVCAR-3 ovarian
OVCAR-4 ovarian = system: OVCAR-4 ovarian
OVCAR-5 ovarian = system: OVCAR-5 ovarian
OVCAR-8 ovarian = system: OVCAR-8 ovarian
PC-3 prostate = system: PC-3 prostate
RPMI-8226 leukemia = system: RPMI-8226 leukemia
RXF 393 renal = system: RXF 393 renal
SF-268 CNS = system: SF-268 CNS
SF-295 CNS = system: SF-295 CNS
SF-539 CNS = system: SF-539 CNS
SK-MEL-2 melanoma = system: SK-MEL-2 melanoma
SK-MEL-28 melanoma = system: SK-MEL-28 melanoma
SK-MEL-5 melanoma = system: SK-MEL-5 melanoma
SK-OV-3 ovarian = system: SK-OV-3 ovarian
SN12C renal = system: SN12C renal
SNB-19 CNS = system: SNB-19 CNS
SNB-75 CNS = system: SNB-75 CNS
SR leukemia = system: SR leukemia
SW-620 colon = system: SW-620 colon
T-47D breast = system: T-47D breast
TK-10 renal = system: TK-10 renal
U251 CNS = system: U251 CNS
UACC-257 melanoma = system: UACC-257 melanoma
UACC-62 melanoma = system: UACC-62 melanoma
UO-31 renal = system: UO-31 renal

O=C(NCCCCC(c1ccc(F)cc1)c1ccc(F)cc1)NCCCc1cccnc1
GI50 (786-0 renal): 13.3 µM
TGI (786-0 renal): 37.1 µM
GI50 (A498 renal): 18.3 µM
TGI (A498 renal): 32.9 µM
GI50 (A549 NSCLC): 2.62 µM
TGI (A549 NSCLC): 40.5 µM
GI50 (ACHN renal): 9.16 µM
TGI (ACHN renal): 22.8 µM
GI50 (BT-549 breast): 3.21 µM
TGI (BT-549 breast): 15.3 µM
GI50 (CAKI-1 renal): 5.87 µM
TGI (CAKI-1 renal): 25.3 µM
GI50 (CCRF-CEM leukemia): 0.33 µM
TGI (CCRF-CEM leukemia): 24.6 µM
GI50 (COLO 205 colon): 0.877 µM
TGI (COLO 205 colon): 16.2 µM
GI50 (DU-145 prostate): 0.721 µM
TGI (DU-145 prostate): 17.2 µM
GI50 (EKVX NSCLC): 5.01 µM
TGI (EKVX NSCLC): 23.6 µM
GI50 (HCC-2998 colon): 0.822 µM
TGI (HCC-2998 colon): 17.3 µM
GI50 (HCT-116 colon): 0.0931 µM
TGI (HCT-116 colon): 13 µM
GI50 (HCT-15 colon): 0.461 µM
TGI (HCT-15 colon): 14.9 µM
GI50 (HL-60(TB) leukemia): 1.64 µM
TGI (HL-60(TB) leukemia): > 39.4 µM
GI50 (HOP-62 NSCLC): 14.6 µM
TGI (HOP-62 NSCLC): 30.2 µM
GI50 (HOP-92 NSCLC): 10.4 µM
TGI (HOP-92 NSCLC): 26.5 µM
GI50 (HS 578T breast): 5.04 µM
TGI (HS 578T breast): 34.9 µM
GI50 (HT29 colon): 0.619 µM
TGI (HT29 colon): 17 µM
GI50 (IGROV1 ovarian): 0.816 µM
TGI (IGROV1 ovarian): 19.2 µM
GI50 (K-562 leukemia): 0.385 µM
TGI (K-562 leukemia): > 100 µM
GI50 (KM12 colon): 0.81 µM
TGI (KM12 colon): 18.4 µM
GI50 (LOX IMVI melanoma): 10.7 µM
TGI (LOX IMVI melanoma): 23.4 µM
GI50 (M14 melanoma): 0.607 µM
TGI (M14 melanoma): 16.4 µM
GI50 (MALME-3M melanoma): 8.47 µM
TGI (MALME-3M melanoma): 21.7 µM
GI50 (MCF7 breast): 3.61 µM
TGI (MCF7 breast): 20.3 µM
GI50 (MDA-MB-231 breast): 4.94 µM
TGI (MDA-MB-231 breast): 20.9 µM
GI50 (MDA-MB-435): 0.444 µM
TGI (MDA-MB-435): 15 µM
GI50 (MDA-MB-468 breast): 1.53 µM
TGI (MDA-MB-468 breast): 10.6 µM
GI50 (MOLT-4 leukemia): 1.13 µM
TGI (MOLT-4 leukemia): > 50.5 µM
GI50 (NCI-H226 lung): 12.3 µM
TGI (NCI-H226 lung): 29 µM
GI50 (NCI-H23 lung): 6.8 µM
TGI (NCI-H23 lung): 23 µM
GI50 (NCI-H460 lung): 3.23 µM
TGI (NCI-H460 lung): 19.4 µM
GI50 (NCI-H522 lung): 0.546 µM
TGI (NCI-H522 lung): 16.1 µM
GI50 (NCI/ADR-RES ovarian): 0.584 µM
TGI (NCI/ADR-RES ovarian): 17.3 µM
GI50 (OVCAR-3 ovarian): 4.58 µM
TGI (OVCAR-3 ovarian): 22.4 µM
GI50 (OVCAR-4 ovarian): 4.71 µM
TGI (OVCAR-4 ovarian): 53.1 µM
GI50 (OVCAR-5 ovarian): 0.628 µM
TGI (OVCAR-5 ovarian): 17.8 µM
GI50 (OVCAR-8 ovarian): 0.127 µM
TGI (OVCAR-8 ovarian): 26.4 µM
GI50 (PC-3 prostate): 0.645 µM
TGI (PC-3 prostate): 19 µM
GI50 (RPMI-8226 leukemia): 0.627 µM
TGI (RPMI-8226 leukemia): 20.3 µM
GI50 (RXF 393 renal): 12.4 µM
TGI (RXF 393 renal): 27.3 µM
GI50 (SF-268 CNS): 12.3 µM
TGI (SF-268 CNS): 29.2 µM
GI50 (SF-295 CNS): 1.82 µM
TGI (SF-295 CNS): 15.4 µM
GI50 (SF-539 CNS): 0.0974 µM
TGI (SF-539 CNS): 11.9 µM
GI50 (SK-MEL-2 melanoma): 4.24 µM
TGI (SK-MEL-2 melanoma): 16.9 µM
GI50 (SK-MEL-28 melanoma): 10.6 µM
TGI (SK-MEL-28 melanoma): 23.5 µM
GI50 (SK-MEL-5 melanoma): 1.22 µM
TGI (SK-MEL-5 melanoma): 9.46 µM
GI50 (SK-OV-3 ovarian): 10.9 µM
TGI (SK-OV-3 ovarian): 29 µM
GI50 (SN12C renal): 0.133 µM
TGI (SN12C renal): 15.2 µM
GI50 (SNB-19 CNS): 1.79 µM
TGI (SNB-19 CNS): 18.5 µM
GI50 (SNB-75 CNS): 8.64 µM
TGI (SNB-75 CNS): 26.8 µM
GI50 (SR leukemia): 3.17 µM
TGI (SR leukemia): > 100 µM
GI50 (SW-620 colon): 0.297 µM
TGI (SW-620 colon): 15.7 µM
GI50 (T-47D breast): 0.749 µM
TGI (T-47D breast): 16.1 µM
GI50 (TK-10 renal): 13.7 µM
TGI (TK-10 renal): 29.2 µM
GI50 (U251 CNS): 3.88 µM
TGI (U251 CNS): 22.1 µM
GI50 (UACC-257 melanoma): 9.06 µM
TGI (UACC-257 melanoma): 23.8 µM
GI50 (UACC-62 melanoma): 7.11 µM
TGI (UACC-62 melanoma): 20.2 µM
GI50 (UO-31 renal): 5.51 µM
TGI (UO-31 renal): 20.1 µM
